#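 Cultured in 96-well plates, cells were exposed to test compound for 48 hours across five concentrations. At the GI50, growth is halved. TGI is the concentration that stops growth completely.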
# Experiments:
# Experiment in all cases: NCI tumour cell line growth inhibition, 48 h
# [1] = system: SK-MEL-2 melanoma
# [2] = system: PC-3 prostate
# [3] = system: BT-549 breast
# [4] = system: SNB-19 CNS
# [5] = system: SK-MEL-28 melanoma
# [6] = system: NCI-H23 lung
# [7] = system: HCT-15 colon
# [8] = system: A549 NSCLC
# [9] = system: SK-OV-3 ovarian
# [10] = system: HOP-92 NSCLC
# [11] = system: HS 578T breast
# [12] = system: OVCAR-5 ovarian
# [13] = system: RPMI-8226 leukemia
# [14] = system: ACHN renal
# [15] = system: MDA-N
# [16] = system: NCI-H460 lung
# [17] = system: RXF 393 renal
# [18] = system: SK-MEL-5 melanoma
# [19] = system: UO-31 renal
# [20] = system: HOP-62 NSCLC
# [21] = system: MCF7 breast
# [22] = system: NCI-H226 lung
# [23] = system: LOX IMVI melanoma
# [24] = system: DU-145 prostate
# [25] = system: OVCAR-8 ovarian
# [26] = system: SR leukemia
# [27] = system: MOLT-4 leukemia
# [28] = system: HCC-2998 colon
# [29] = system: U251 CNS
# [30] = system: A498 renal
# [31] = system: CAKI-1 renal
# [32] = system: SF-539 CNS
# [33] = system: SF-268 CNS
# [34] = system: CCRF-CEM leukemia
# [35] = system: HCT-116 colon
# [36] = system: COLO 205 colon
# [37] = system: K-562 leukemia
# [38] = system: HT29 colon
# [39] = system: UACC-62 melanoma
# [40] = system: MDA-MB-435
# [41] = system: SW-620 colon
# [42] = system: TK-10 renal
# [43] = system: MDA-MB-231 breast
# [44] = system: SNB-75 CNS
# [45] = system: SF-295 CNS
# [46] = system: UACC-257 melanoma
# [47] = system: OVCAR-3 ovarian
# [48] = system: SN12C renal
# [49] = system: IGROV1 ovarian
# [50] = system: NCI/ADR-RES ovarian
# [51] = system: EKVX NSCLC
# [52] = system: OVCAR-4 ovarian
# [53] = system: KM12 colon
# [54] = system: MALME-3M melanoma
# [55] = system: M14 melanoma
# [56] = system: T-47D breast
# [57] = system: HL-60(TB) leukemia
# [58] = system: 786-0 renal
# [59] = system: NCI-H522 lung
compound,measurement,setting,value
CN1C(=O)[C@@H]2[C@@H]3c4ccccc4N[C@@H]3c3[nH]c4ccccc4c3[C@@H]2C1=O,TGI,[1],33.1 µM
same,TGI,[2],50.5 µM
same,TGI,[3],53.6 µM
same,TGI,[4],> 100 µM
same,TGI,[5],67.9 µM
same,TGI,[6],28.6 µM
same,TGI,[7],50.1 µM
same,TGI,[8],65.1 µM
same,TGI,[9],66.7 µM
same,TGI,[10],59.7 µM
same,TGI,[11],76.5 µM
same,TGI,[12],64.2 µM
same,TGI,[13],47 µM
same,TGI,[14],49.9 µM
same,TGI,[15],> 100 µM
same,TGI,[16],31.4 µM
same,TGI,[17],64.4 µM
same,TGI,[18],25 µM
same,TGI,[19],43.9 µM
same,TGI,[20],43.5 µM
same,TGI,[21],> 100 µM
same,TGI,[22],> 100 µM
same,TGI,[23],46.6 µM
same,TGI,[24],> 100 µM
same,TGI,[25],63.1 µM
same,TGI,[26],59.3 µM
same,TGI,[27],55.6 µM
same,TGI,[28],40.3 µM
same,TGI,[29],66.3 µM
same,TGI,[30],65.3 µM
same,TGI,[31],> 100 µM
same,TGI,[32],39.3 µM
same,TGI,[33],92.6 µM
same,TGI,[34],46.5 µM
same,TGI,[35],74.9 µM
same,TGI,[36],36.5 µM
same,TGI,[37],74.7 µM
same,TGI,[38],> 100 µM
same,TGI,[39],32.4 µM
same,TGI,[40],64.7 µM
same,TGI,[41],> 100 µM
same,TGI,[42],77.6 µM
same,TGI,[43],63.2 µM
same,TGI,[44],85.8 µM
same,TGI,[45],47 µM
same,TGI,[46],48.9 µM
same,TGI,[47],40 µM
same,TGI,[48],> 100 µM
same,TGI,[49],26.9 µM
same,TGI,[50],52 µM
same,TGI,[51],> 100 µM
same,TGI,[52],54.3 µM
CP(=O)(O)C(N)c1ccccc1 (stereo not drawn),TGI,[2],> 100 µM
same,TGI,[3],> 100 µM
same,TGI,[53],> 100 µM
same,TGI,[54],> 100 µM
same,TGI,[4],> 100 µM
same,TGI,[55],> 100 µM
same,TGI,[5],> 100 µM
same,TGI,[6],> 100 µM
same,TGI,[56],> 100 µM
same,TGI,[7],> 100 µM
same,TGI,[8],> 100 µM
same,TGI,[9],> 100 µM
same,TGI,[10],> 100 µM
same,TGI,[11],> 100 µM
same,TGI,[12],> 100 µM
same,TGI,[13],> 100 µM
same,TGI,[14],> 100 µM
same,TGI,[15],> 100 µM
same,TGI,[16],> 100 µM
same,TGI,[18],> 100 µM
same,TGI,[19],> 100 µM
same,TGI,[20],> 100 µM
same,TGI,[21],> 100 µM
same,TGI,[22],> 100 µM
same,TGI,[23],> 100 µM
same,TGI,[24],> 100 µM
same,TGI,[25],> 100 µM
same,TGI,[26],> 100 µM
same,TGI,[27],> 100 µM
same,TGI,[29],> 100 µM
same,TGI,[31],> 100 µM
same,TGI,[33],> 100 µM
same,TGI,[34],> 100 µM
same,TGI,[35],> 100 µM
same,TGI,[36],> 100 µM
same,TGI,[57],> 100 µM
same,TGI,[37],> 100 µM
same,TGI,[38],> 100 µM
same,TGI,[39],> 100 µM
same,TGI,[40],> 100 µM
same,TGI,[41],> 100 µM
same,TGI,[58],> 100 µM
same,TGI,[42],> 100 µM
same,TGI,[59],> 100 µM
same,TGI,[45],> 100 µM
same,TGI,[46],> 100 µM
same,TGI,[47],> 100 µM
same,TGI,[48],> 100 µM
same,TGI,[49],> 100 µM
same,TGI,[50],> 100 µM
same,TGI,[51],> 100 µM
same,TGI,[52],> 100 µM
COc1cc(O)c2c(=O)c(OC)c(-c3ccc(OC)c(OC)c3)oc2c1.[Sn],GI50,[2],68.5 µM
same,TGI,[2],> 100 µM
same,TGI,[3],> 100 µM
same,GI50,[54],> 100 µM
same,TGI,[54],> 100 µM
same,GI50,[4],> 100 µM
same,TGI,[4],> 100 µM
same,GI50,[55],> 100 µM
same,TGI,[55],> 100 µM
same,GI50,[5],> 100 µM
same,TGI,[5],> 100 µM
same,GI50,[56],7.91 µM
same,TGI,[56],> 100 µM
same,TGI,[8],> 100 µM
same,TGI,[9],> 100 µM
same,TGI,[11],> 100 µM
same,GI50,[12],> 100 µM
same,TGI,[12],> 100 µM
same,TGI,[13],> 100 µM
same,GI50,[14],> 100 µM
same,TGI,[14],> 100 µM
same,TGI,[15],> 100 µM
same,TGI,[16],> 100 µM
same,TGI,[17],> 100 µM
same,GI50,[18],32.9 µM
same,TGI,[18],> 100 µM
same,TGI,[19],> 100 µM
same,GI50,[20],> 100 µM
same,TGI,[20],> 100 µM
same,GI50,[21],> 100 µM
same,TGI,[21],> 100 µM
same,TGI,[22],> 100 µM
same,GI50,[23],29.8 µM
same,TGI,[23],> 100 µM
same,GI50,[24],> 100 µM
same,TGI,[24],> 100 µM
same,GI50,[25],> 100 µM
same,TGI,[25],> 100 µM
same,GI50,[27],80.1 µM
same,TGI,[27],> 100 µM
same,GI50,[28],> 100 µM
same,TGI,[28],> 100 µM
same,TGI,[31],> 100 µM
same,TGI,[32],> 100 µM
same,GI50,[33],> 100 µM
same,TGI,[33],> 100 µM
same,TGI,[36],> 100 µM
same,TGI,[57],> 100 µM
same,GI50,[37],> 100 µM
same,TGI,[37],> 100 µM
same,GI50,[38],> 100 µM
same,TGI,[38],> 100 µM
same,GI50,[39],> 100 µM
same,TGI,[39],> 100 µM
same,TGI,[41],> 100 µM
same,TGI,[58],> 100 µM
same,TGI,[42],> 100 µM
same,GI50,[43],> 100 µM
same,TGI,[43],> 100 µM
same,TGI,[44],> 100 µM
same,TGI,[59],> 100 µM
same,GI50,[45],17.4 µM
same,TGI,[45],> 100 µM
same,GI50,[47],> 100 µM
same,TGI,[47],> 100 µM
same,TGI,[48],> 100 µM
same,GI50,[49],> 100 µM
same,TGI,[49],> 100 µM
same,GI50,[50],> 100 µM
same,TGI,[50],> 100 µM
same,GI50,[51],> 100 µM
same,TGI,[51],> 100 µM
same,GI50,[52],8.24 µM
same,TGI,[52],> 100 µM

# Source: PubChem BioAssay (NCI)
